Laboratory results: PubChem BioAssay (NCI)
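Interpolation was linear, between the two tested concentrations surrounding the appropriate level; five concentrations were tested over 48 hours in 96-well plates. At the GI50, growth is halved. TGI denotes the concentration required for complete inhibition of growth.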

Legend:
Experiment in all cases: growth of human tumour cells (NCI), 48 h
UACC-62 melanoma = test system: UACC-62 melanoma
ACHN renal = test system: ACHN renal
LOX IMVI melanoma = test system: LOX IMVI melanoma
UO-31 renal = test system: UO-31 renal
HOP-92 NSCLC = test system: HOP-92 NSCLC
SW-620 colon = test system: SW-620 colon
SK-OV-3 ovarian = test system: SK-OV-3 ovarian
MALME-3M melanoma = test system: MALME-3M melanoma
SF-539 CNS = test system: SF-539 CNS
SK-MEL-2 melanoma = test system: SK-MEL-2 melanoma

Q: What does the source list for COc1ccc(-c2conc2-c2ccccc2)cc1?
A: GI50 (UACC-62 melanoma): 0.689 µM; TGI (UACC-62 melanoma): > 100 µM; GI50 (ACHN renal): 1.1 µM; TGI (ACHN renal): > 100 µM; GI50 (LOX IMVI melanoma): 0.612 µM; TGI (LOX IMVI melanoma): > 100 µM; GI50 (UO-31 renal): 0.64 µM; TGI (UO-31 renal): 40.9 µM; GI50 (HOP-92 NSCLC): 4.58 µM; TGI (HOP-92 NSCLC): > 76.4 µM; GI50 (SW-620 colon): 0.081 µM; TGI (SW-620 colon): > 100 µM; GI50 (SK-OV-3 ovarian): 0.501 µM; TGI (SK-OV-3 ovarian): > 100 µM; GI50 (MALME-3M melanoma): 4.95 µM; TGI (MALME-3M melanoma): > 80.1 µM; GI50 (SF-539 CNS): 0.272 µM; TGI (SF-539 CNS): 3.87 µM; GI50 (SK-MEL-2 melanoma): 0.585 µM; TGI (SK-MEL-2 melanoma): > 100 µM

Q: COc1ccc(-c2nn(-c3cccc(Cl)c3)cc2/C=C2\C(=N)N(c3ccccc3)N=C2N)cc1 was tested. Which GI50 (UACC-62 melanoma) did it give?
A: 0.331 µM

Q: And the TGI (UACC-62 melanoma)?
A: 3.75 µM

Q: What about the GI50 (ACHN renal) of the same compound?
A: 0.95 µM

Q: And the TGI (ACHN renal)?
A: 42.6 µM

Q: And the GI50 (LOX IMVI melanoma)?
A: 0.337 µM

Q: And the TGI (LOX IMVI melanoma)?
A: 4.58 µM

Q: What about the GI50 (UO-31 renal) of the same compound?
A: 0.587 µM

Q: And the TGI (UO-31 renal)?
A: 25.8 µM

Q: And the GI50 (HOP-92 NSCLC)?
A: 22.4 µM

Q: What about the TGI (HOP-92 NSCLC) of the same compound?
A: > 81.4 µM

Q: And the GI50 (SW-620 colon)?
A: 0.399 µM

Q: What about the TGI (SW-620 colon) of the same compound?
A: 20.7 µM

Q: What about the GI50 (SK-OV-3 ovarian) of the same compound?
A: 34.7 µM

Q: What about the TGI (SK-OV-3 ovarian) of the same compound?
A: > 100 µM

Q: What about the GI50 (MALME-3M melanoma) of the same compound?
A: 4.9 µM

Q: And the TGI (MALME-3M melanoma)?
A: 46.1 µM

Q: And the GI50 (SF-539 CNS)?
A: 0.617 µM

Q: What about the TGI (SF-539 CNS) of the same compound?
A: 3.52 µM

Q: And the GI50 (SK-MEL-2 melanoma)?
A: 1.66 µM

Q: What about the TGI (SK-MEL-2 melanoma) of the same compound?
A: 12.6 µM

Q: For CCCCCCCCCCCCNC(=O)[C@H]1CSC(c2ccsc2)N1 (stereo not given in full), which GI50 (UACC-62 melanoma) is on record?
A: 0.929 µM

Q: And the TGI (UACC-62 melanoma)?
A: 1.82 µM

Q: What about the GI50 (ACHN renal) of the same compound?
A: 0.938 µM

Q: And the TGI (ACHN renal)?
A: 1.75 µM

Q: And the GI50 (LOX IMVI melanoma)?
A: 0.824 µM

Q: And the TGI (LOX IMVI melanoma)?
A: 1.64 µM

Q: What about the GI50 (UO-31 renal) of the same compound?
A: 0.826 µM

Q: And the TGI (UO-31 renal)?
A: 1.51 µM

Q: And the GI50 (HOP-92 NSCLC)?
A: 1.01 µM

Q: And the TGI (HOP-92 NSCLC)?
A: 2.02 µM

Q: What about the GI50 (SW-620 colon) of the same compound?
A: 0.969 µM

Q: What about the TGI (SW-620 colon) of the same compound?
A: 1.85 µM

Q: What about the GI50 (SK-OV-3 ovarian) of the same compound?
A: 0.955 µM

Q: What about the TGI (SK-OV-3 ovarian) of the same compound?
A: 1.66 µM

Q: What about the GI50 (MALME-3M melanoma) of the same compound?
A: 1.14 µM

Q: What about the TGI (MALME-3M melanoma) of the same compound?
A: 2.12 µM

Q: What about the GI50 (SF-539 CNS) of the same compound?
A: 0.902 µM

Q: And the TGI (SF-539 CNS)?
A: 1.7 µM

Q: And the GI50 (SK-MEL-2 melanoma)?
A: 0.974 µM

Q: And the TGI (SK-MEL-2 melanoma)?
A: 1.76 µM

Q: Which TGI (UACC-62 melanoma) does the source give for C=C1c2ccccc2N(S(=O)(=O)c2ccc(C)cc2)C12CCCCC2 here?
A: > 100 µM

Q: And the TGI (ACHN renal)?
A: > 100 µM

Q: And the TGI (LOX IMVI melanoma)?
A: > 100 µM

Q: What about the TGI (UO-31 renal) of the same compound?
A: > 100 µM

Q: What about the TGI (HOP-92 NSCLC) of the same compound?
A: 58.5 µM

Q: And the TGI (SW-620 colon)?
A: > 100 µM

Q: What about the TGI (SK-OV-3 ovarian) of the same compound?
A: > 100 µM

Q: What about the TGI (MALME-3M melanoma) of the same compound?
A: > 100 µM

Q: What about the TGI (SF-539 CNS) of the same compound?
A: > 100 µM

Q: And the TGI (SK-MEL-2 melanoma)?
A: > 100 µM

Q: What does the source list for CN1C=C(C(N)=O)C2CC(O)[C@@](NC(=O)CS(N)(=O)=O)(C(=O)O)C2C1 (stereo not given in full)?
A: TGI (UACC-62 melanoma): 7.02 µM; TGI (ACHN renal): 97.3 µM; TGI (LOX IMVI melanoma): 5.58 µM; TGI (UO-31 renal): 14.1 µM; TGI (HOP-92 NSCLC): 5.05 µM; TGI (SW-620 colon): > 91.5 µM; TGI (SK-OV-3 ovarian): 6.75 µM; TGI (MALME-3M melanoma): 20.3 µM; TGI (SF-539 CNS): 4.41 µM; TGI (SK-MEL-2 melanoma): 8.22 µM

Q: COc1cc(/C=C2\C(=O)Nc3ccc(Br)cc32)cc(OC)c1OC was tested. Which GI50 (UACC-62 melanoma) did it give?
A: 5.96 µM

Q: And the TGI (UACC-62 melanoma)?
A: > 100 µM

Q: What about the GI50 (ACHN renal) of the same compound?
A: 31.9 µM

Q: And the TGI (ACHN renal)?
A: > 100 µM

Q: What about the GI50 (LOX IMVI melanoma) of the same compound?
A: 10.6 µM

Q: And the TGI (LOX IMVI melanoma)?
A: > 100 µM

Q: And the GI50 (UO-31 renal)?
A: 6.73 µM

Q: And the TGI (UO-31 renal)?
A: > 100 µM

Q: And the GI50 (HOP-92 NSCLC)?
A: 2.68 µM

Q: And the TGI (HOP-92 NSCLC)?
A: 24.8 µM

Q: What about the GI50 (SW-620 colon) of the same compound?
A: 3.74 µM

Q: What about the TGI (SW-620 colon) of the same compound?
A: > 100 µM

Q: And the GI50 (SK-OV-3 ovarian)?
A: 24 µM

Q: What about the TGI (SK-OV-3 ovarian) of the same compound?
A: > 56.1 µM

Q: What about the GI50 (MALME-3M melanoma) of the same compound?
A: 0.606 µM

Q: What about the TGI (MALME-3M melanoma) of the same compound?
A: 16.8 µM

Q: And the GI50 (SF-539 CNS)?
A: 26.7 µM

Q: And the TGI (SF-539 CNS)?
A: > 100 µM

Q: And the GI50 (SK-MEL-2 melanoma)?
A: 12.9 µM

Q: And the TGI (SK-MEL-2 melanoma)?
A: 55.2 µM

Q: BrC(Br)([P+](c1ccccc1)(c1ccccc1)c1ccccc1)[P+](c1ccccc1)(c1ccccc1)c1ccccc1 was tested. Which TGI (UACC-62 melanoma) did it give?
A: 29.8 µM

Q: What about the TGI (ACHN renal) of the same compound?
A: 69.3 µM

Q: And the TGI (LOX IMVI melanoma)?
A: 27.2 µM

Q: And the TGI (UO-31 renal)?
A: > 100 µM

Q: What about the TGI (HOP-92 NSCLC) of the same compound?
A: 31.2 µM

Q: And the TGI (SW-620 colon)?
A: 29.6 µM

Q: And the TGI (SK-OV-3 ovarian)?
A: > 100 µM

Q: And the TGI (MALME-3M melanoma)?
A: 26.2 µM

Q: What about the TGI (SF-539 CNS) of the same compound?
A: 27.8 µM

Q: And the TGI (SK-MEL-2 melanoma)?
A: 38.9 µM
